{"source": "patent US20080206149A1", "about": "“METHOD, DYE AND MEDICAMENT FOR STAINING THE INTERNAL LIMITING MEMBRANE, EPIRETINAL MEMBRANE, THE VITREOUS AND/OR THE CAPSULE OF AN EYE” (LUDWIG-MAXIMILIANS-UNIVERSITAT MUNCHEN, priority 2005, published 2008)", "key": {"[1]": {"system": "human lens capsule", "experiment": "Capsulorhexis in patients with white cataracts (Example 2)", "format": "in vivo", "description": "In previous experimental studies, we have investigated a number of vital dyes in-vivo and in-vitro in order to evaluate their staining characteristics and safety (C. Haritoglou, A. Yu, W. Freyer, S. G. Priglinger, C. Alge, K. Eibl, C. A. May, U. Welge-Luessen, A. Kampik, “An evaluation of novel vital dyes for intraocular surgery”, Invest Ophthalmol Vis Sci 46 (2005), pp. 3315-22; F. Schuettauf, C. Haritoglou, C. A. May, R. Rejdak, A. Mankowska, W. Freyer, K. Eibl, E. Zrenner, A. Kampik, S. Thaler, “Administration of novel dyes for intraocular surgery: an in vivo toxicity animal study”, Invest Ophthalmol Vis Sci 47 (2006), pp. 3573-8; C. Haritoglou, R. Tadayoni, C. A. May, C. A. Gass, W. Freyer, S. G. Priglinger, A. Kampik, “Short-term in vivo evaluation of novel vital dyes for intraocular surgery”, Retina 26 (2006), pp. 673-8). […] Prior to the application in humans, the toxicity of bromphenol blue had been thoroughly investigated in experimental settings including ex-vivo cell culture models and in-vivo animal studies with intraocular exposure times of up to seven days (C. Haritoglou, A. Yu, W. Freyer, S. G. Priglinger, C. Alge, K. Eibl, C. A. May, U. Welge-Luessen, A. Kampik, “An evaluation of novel vital dyes for intraocular surgery”, Invest Ophthalmol Vis Sci 46 (2005), pp. 3315-22; F. Schuettauf, C. Haritoglou, C. A. May, R. Rejdak, A. Mankowska, W. Freyer, K. Eibl, E. Zrenner, A. Kampik, S. Thaler, “Administration of novel dyes for intraocular surgery: an in vivo toxicity animal study”, Invest Ophthalmol Vis Sci 47 (2006), pp. 3573-8; C. Haritoglou, R. Tadayoni, C. A. May, C. A. Gass, W. Freyer, S. G. Priglinger, A. Kampik, “Short-term in vivo evaluation of novel vital dyes for intraocular surgery”, Retina 26 (2006), pp. 673-8). […] The data obtained from these toxicity studies underlined the high biocompatibility of bromphenol blue. Bromphenol blue (C19H10Br4O5S, FW 670) has been used in the past as a vital stain to probe the blood-brain barrier and as a protein stain and as a pH indicator. In the present example, we describe experience using bromphenol blue to stain the human lens capsule in patients with white cataracts. This investigation was approved by the local ethics committee and the Institutional Review Board (IRB). Written informed consent was obtained from all patients prior to surgery.\nCataract formation was due to ocular trauma (n=2), uveitis (n=1) and unknown cause (n=2). Mean age was 59 years. All patients underwent a complete clinical examination before surgery. B-scan ultrasound of the globe was performed to rule out intraocular pathologies such as tumors or retinal detachments. Bromphenol blue powder was dissolved and diluted using BSS plus (balanced salt solution; Alcon Laboratories Inc., Fort Worth, Tex, USA) and sterilized using a 0.22 μm syringe filter. We used dye concentrations of approximately 0.1% (310 mOsm, pH 7.6). Five consecutive patients were included into this preliminary series of patients, three female and two male. Visual acuity was 20/400 or below before surgery and increased to 20/50 (mean) postoperatively. The dye was either injected into the air-filled (n=3) anterior chamber and carefully removed by injection of viscoelastic material (FIG. 7) immediately after injection or injected after having filled the anterior chamber with viscoelastic material (n=2) without prior air injection. In the latter case, the dye was evenly and gently distributed on the lens surface using the cannula and excessive dye was removed after completion of capsulorhexis (approximately one minute after application)."}, "[2]": {"system": "primary RPE cells", "experiment": "MTT assay, primary RPE cells", "settings": "0.2% and 0.02% dye, 10 minutes exposure, compared to BSS plus control", "excerpt": "In brief, whole eyes were thoroughly cleansed in 0.9% NaCl solution, immersed in 5% polyvinyl pyrrolidone iodine, and rinsed again in the sodiumchloride solution. The anterior segment from each donor eye was removed and the posterior poles were examined with the aid of a binocular stereomicroscope to confirm the absence of gross retinal disease. Next, the neural retinas were carefully peeled away from the RPE-choroid-sclera using fine forceps. The eye cup was rinsed with Ca^2+ and Mg^2+-free Hank's balanced salt solution, and filled with 0.25% trypsin (GIBCO, Karlsruhe, Germany) for 30 min at 37° C. The trypsin was carefully aspirated and replaced with Dulbecco's modified eagles medium (DMEM, Biochrom, Berlin, Germany) supplemented with 20% fetal calf serum (FCS, Biochrom). Using a pipette, the media was gently agitated, releasing the RPE into the media by avoiding damage to Bruch's membrane. The RPE cell solution was transferred to a 50 ml flask (Falcon, Wiesbaden, Germany) containing 20 ml of DMEM (Biochrom) supplemented with 20% FCS (Biochrom) and maintained at 37° C. and 5% carbon dioxide. […] After having grown to confluency (100%), primary RPE cells were subcultured and maintained in DMEM (Biochrom) supplemented with 10% FCS (Biochrom) at 37° C. and 5% carbon dioxide. Primary RPE of passage 3-6 and ARPE-19 cells were used for experiments.\nFor exposure of dyes RPE and ARPE-19 cells were kept for 24 hours under serum free conditions. After washing cells three times with PBS, cells were incubated for 10 minutes with 300 μl of BSS plus containing 0.2% or 0.02% of dye, respectively. […] The dye was then removed by carefully rinsing cells with BSS plus three times. After 24 hours incubation with serum containing media the cell proliferation assay was performed. […]\nThe tetrazolium dye-reduction assay (MTT; 3-[4,5-dimethylthiazol-2-yl]-2,5-diphenyl tetrazolium bromide;) was used to determine cell survival rate. […] Absorption was measured by a scanning multiwell spectrophotometer at 550 nm (Molecular Probes, Garching, Germany). […]"}, "[3]": {"system": "epiretinal membranes, ILM and vitreous", "experiment": "Vitreoretinal surgery for macular pucker (Example 4)", "format": "in vivo, human", "settings": "for staining effect of ERM: washed out after one minute", "description": "The study was approved by the local ethics committee and Institutional Review Board, and written informed consent was obtained from all patients. Thirteen patients with macular pucker, seven males and six females with a mean age of 65, were included in the present study.\nPreoperatively and postoperatively, patients underwent a complete clinical examination including measurement of best corrected visual acuity (VA), slit-lamp examination, tonometry, funduscopy using a 78 diopter lens (Volk Optical, Mentor, Ohio, USA), fluorescein angiography, OCT (Stratus), Goldmann perimetry, multifocal ERG and fundus photograph. Patients were seen one day before surgery and then in six-week intervals. Postoperatively, ERG and Goldmann perimetry were performed at the six-week follow-up visit and were not repeated if unremarkable.\nBromphenol blue was dissolved and diluted using BSS plus and sterilised using a 0.22 μm syringe filter and dye concentrations of 0.2% were then injected into the eye.\nVitrectomy consisted of a standard three-port pars plana vitrectomy as described in previous reports (Haritoglou C., Gandorfer A., Gass C. A., et al., “Indocyanine green-assisted peeling of the internal limiting membrane in macular hole surgery affects visual outcome: a clinicopathologic correlation”, Am J. Ophthalmol 2002; 134:836-41; Haritoglou C., Gandorfer A., Gass C. A., et al.: “The effect of indocyanine-green on functional outcome of macular pucker surgery, Am J. Ophthalmol 2003; 135:328-37). Before injection of the dye, a fluid air-exchange was performed to avoid an uncontrolled dye distribution. Then, a few drops of the dye were applied over the macular area. After a period of one minute, the dye was completely washed out by irrigation. The staining characteristics were then evaluated by the surgeon and an additional examiner (CH). This was followed by removal of epiretinal tissue and the ILM using an end-gripping forceps. After the removal of epiretinal tissue, no second dye injection was performed in this series of patients.\nAll epiretinal tissue removed during surgery was harvested and immediately prepared for ultrastructural analysis. Ultrathin sections were obtained from all specimens, contrasted with uranyl acetate and lead citrate, and analysed using a Zeiss EM 9 electron microscope (Zeiss Jena, Germany)."}, "[4]": {"settings": "approximately 0.1% dye, white cataract patients"}, "[5]": {"settings": "0.2%, listed as Bromphenol blue"}, "[6]": {"settings": "0.2%, listed as bromphenol blue"}}, "note": "“Also recorded” adds a separate entry of the source."}
{"smiles": "O=S1(=O)OC(c2cc(Br)c(O)c(Br)c2)(c2cc(Br)c(O)c(Br)c2)c2ccccc21", "note": "[Bromophenol blue, Bromophenole blue]", "values": [{"measurement": "contrast between the white lens and the stained lens capsule", "setting": "[1]; all patients", "value": "excellent contrast"}, {"measurement": "visual acuity before surgery", "setting": "[1]; [4]", "value": "20/400"}, {"measurement": "visual acuity postoperatively (mean)", "setting": "[1]; [4]", "value": "20/50"}, {"measurement": "staining of the anterior lens capsule", "setting": "[1]; approximately 0.1%, both injection techniques", "value": "predictable and uniform staining"}, {"measurement": "complications such as corneal edema, inflammation or decrease of corneal endothelial cells", "setting": "[1]; follow-up up to five months postoperatively", "value": "no complications noted"}, {"measurement": "penetration of the lens capsule by the dye", "setting": "[1]; human, in vivo", "value": "did not penetrate the lens capsule"}, {"measurement": "unwanted staining of other tissues such as the iris or the corneal endothelium", "setting": "[1]; human, in vivo", "value": "no unwanted staining of other tissues"}, {"measurement": "residual dye on the anterior lens capsule rim or any other ocular tissue", "setting": "[1]; one day postoperatively", "value": "no residual dye was detected"}, {"measurement": "cell survival of primary RPE cells (MTT)", "setting": "[2]", "value": "no influence on cell survival"}, {"measurement": "staining of the ILM", "setting": "[3]; 0.2%, patients with ERM", "value": "did not observe sufficient staining of the ILM"}, {"measurement": "staining effect of ERM", "setting": "[3]; [5]", "value": "varied depending on the thickness of the ERM"}, {"measurement": "staining effect of ERM", "setting": "[3]; [6]", "value": "good staining properties"}, {"measurement": "staining of remnant vitreous at the vitreous base", "setting": "[3]; [5]", "value": "could he seen in all cases; also recorded: strong staining"}, {"measurement": "staining of remnant vitreous at the vitreous base", "setting": "[3]; [6]", "value": "good staining properties"}, {"measurement": "histology: cellular integrity of epiretinal cells", "setting": "[3]; epiretinal membranes of 8 patients, electron microscopy", "value": "maintained their cellular integrity"}, {"measurement": "amplitudes in postoperative ERG examinations", "setting": "[3]; in vivo", "value": "no affection of the amplitudes"}, {"measurement": "dye-related complications in any functional test performed", "setting": "[3]; in vivo", "value": "No dye-related complications"}, {"measurement": "loss of VA", "setting": "[3]; in vivo", "value": "No loss of VA"}, {"measurement": "peripheral visual field defects attributable to the dye", "setting": "[3]; in vivo", "value": "nor did we observe peripheral visual field defects"}, {"measurement": "safety profile intraoperatively and during follow-up", "setting": "[3]; in vivo", "value": "very good safety profile"}, {"measurement": "VA postoperatively", "setting": "[3]; overall patients", "value": 0.32}, {"measurement": "VA preoperatively", "setting": "[3]; overall patients", "value": 0.16}]}
